Like-named read-outs stand apart in the source and are kept apart here.
What was measured:
[1] = test system: Plasmodium berghei KBG-173; format: in vivo; details: for Mice surviving 60 days/Mice infected and treated: P. berghei in mice; for Parasitemia Day 6: percentage of red blood cells with parasites, control 31.8
Procedure: Blood Schizontocidal Test (Trophozoite-Induced Plasmodium berghei Infection in mice University of Miami, Test System: Thompson Test
Drugs were mixed in 0.5% hydroxycellulose 0.1% Tween 80 and administered orally b.i.d. on days 3, 4 and 5 postinfection. CD-1 male or female mice, 5 weeks of age, were infected with 5×10^4 parasitized erythrocytes of Plasmodium berghei KBG-173 mm strain. Blood films were taken on day +6 and weekly thereafter until day +60. Parasitemias were calculated and SD90 value (dose suppressing 90% of the parasites in treated groups compared with the infected non-treated controls) on day +6 postinfection. Mortality data was tabulated for 60 days at which time all mice surviving that were blood film negative were considered cured.
[…] The activity of these compounds were compared with the untreated control and “racemate” which is a mixture of equal amount of each enantiomer X and Y. In untreated controls, death occurs within 8-9 days. Compounds which are effective against Plasmodium berghei infection increase the mean survival time of the infected animals when compared with the untreated controls. Mice that survive after thirty days and are free of parasites in blood are considered cured.
Efficacy of the drug is determined by the number of cures at the end of a 30 day period and the increase in mean survival time over the control (ΔMST). The effect of the test drugs also could be determined by the reduction of the parasitemia (percentage of the red blood cells detected with the parasites) over the untreated control on day 6, one day after the treatment is completed. Both these methods yield virtually identical results. If the dose of test compounds are inadequate, after initial clearance, residual parasites will multiply and relapses will occur within thirty days. The blood schizontocidal activities (suppressive antimalarial) of X, Y, and racemate against P. berghei in mice are shown in Table 11.

Pneumocystis carinii = assay: Anti-Pneumocystis carinii test (induced Pneumocystis carinii infection in immunosuppressed mice), oral; format: in vivo; details: for Number of animals with organism after treatment/Number of animals treated, Giesma Stain: mice (Table 8); for Giemsa Stain Score / Silver stain Score / Giemsa Stain I/T (animals with organism after treatment/animals treated) / Silver stain I/T (animals with organism after treatment/animals treated): mice; for Giemsa Stain Score / Silver stain Score: mean score on 0 to 5+ scale
[2] = mice; cited from earlier work
L. donovani Chagasi PP75 = assay: In vitro anti-Leishmania activity, Giemsa counts; format: cell-based; details: 1350 ng/mL; control 6.35
P. cynomolgi = details: rhesus monkey, cited from earlier work
[3] = rhesus monkey; cited from earlier work
[4] = test system: Plasmodium berghei KBG-173; assay: Prophylactic test, Plasmodium berghei infection in mice, oral; format: in vivo; details: single dose of 2 mg/kg
From the text: CD-I male or female mice, 5 weeks of age, were infected with 5×10^4 parasitized erythrocytes ot Plasmodium berghei KBG-173 mm strain. Blood films were taken on day +6 and weekly thereafter until day+30. […]

[5] = test system: trypanosome isolate EATRO Lab 110; assay: Antitrypanosomal activity, trypanosome isolates grown as blood forms in HMI-18; format: cell-based, Trypanosoma; details: EATRO Lab 110, after 48 h, 20% horse serum, read-out: IC50
Procedure: (§1) Compounds were tested vs. trypanosome isolates grown as blood forms in HMI-18 (Hirumi H., Hirumi, K. 1989. Continuous Cuitivation of Trypanosoma brucei bloodstream forms in a medium containing a low concentration of serum portein without feeder cell layers. J. Parasitol. 75:985-989) containing 20% horse serum.

[6] = test system: trypanosome isolate KETRI 243As103; assay: as above; format: cell-based, Trypanosoma; details: KETRI 243As103, after 48 h, 20% horse serum; succinate
Procedure: as §1

[7] = test system: trypanosome isolate KETRI 243; assay: as above; format: cell-based, Trypanosoma; details: KETRI 243, after 48 h, 20% horse serum; succinate; read-out: IC50
Procedure: as §1

[8] = test system: trypanosome isolate KETRI 269; assay: as above; format: cell-based, Trypanosoma; details: KETRI 269, after 48 h, 20% horse serum, read-out: IC50
Procedure: as §1

[9] = oral dose 1 mg/kg/day (total dose 3 mg/kg)
[10] = oral dose 4 mg/kg/day (total dose 12 mg/kg)
[11] = oral dose 16 mg/kg/day (total dose 48 mg/kg)
[12] = oral dose 64 mg/kg/day (total dose 192 mg/kg)
[13] = 0.25 mg/kg/day, 0.75 mg/kg total, succinate
[14] = 1 mg/kg/day, 3 mg/kg total, succinate
[15] = 4 mg/kg/day, 12 mg/kg total, succinate
[16] = oral 0.25 mg/kg/day (x21), succinate, 0.25 mg/kg/day

COc1cc(NC(C)CCCN)c2nccc(C)c2c1Oc1cccc(C(F)(F)F)c1 (stereo not drawn) [WR-225,448, reference compound]
Mice surviving 60 days/Mice infected and treated [1, 9]: 7/7
Mice surviving 60 days/Mice infected and treated [1, 10]: 7/7
Mice surviving 60 days/Mice infected and treated [1, 11]: 7/7
Mice surviving 60 days/Mice infected and treated [1, 12]: 4/7

COc1cc(NC(C)CCCN)c2ncccc2c1 (single isomer, unassigned; (+)) [(+) Primaquine, reference compound]
Number of animals with organism after treatment/Number of animals treated, Giesma Stain (Pneumocystis carinii; oral 2 mg/kg/day (x21)): 10/10
Number of animals with organism after treatment/Number of animals treated, Giesma Stain (Pneumocystis carinii; oral 5 mg/kg/day (x21), listed as (+) Enantiomer, 5 mg/kg/day): 7/10
Number of animals with organism after treatment/Number of animals treated, Giesma Stain (Pneumocystis carinii; oral 10 mg/kg/day (x21), listed as (+) Enantiomer, 10 mg/kg/day): 1/10
toxicity relative to the l-form [2]: approximately 4 times

O=C1C(O)=C([C@H]2CC[C@H](c3ccc(Cl)cc3)CC2)C(=O)c2ccccc21 [Atovaquone, reference compound]
Giemsa Counts (L. donovani Chagasi PP75): 5.05 ± 0.21

CCCCCOc1c(OC)cc(NC(C)CCCN)c2nccc(C)c12 (stereo not drawn) [Compound 4]
Mice surviving 60 days/Mice infected and treated [1, 9]: 7/7
Mice surviving 60 days/Mice infected and treated [1, 10]: 7/7
Mice surviving 60 days/Mice infected and treated [1, 11]: 4/7
Mice surviving 60 days/Mice infected and treated [1, 12]: 0/7

COc1cc(NC(C)CCCN)c2ncccc2c1 (stereo not drawn) [Primaquine, reference compound]
Mice surviving 60 days/Mice infected and treated [1, 9]: 0/7
Mice surviving 60 days/Mice infected and treated [1, 10]: 0/7
Mice surviving 60 days/Mice infected and treated [1, 11]: 1/7
Mice surviving 60 days/Mice infected and treated [1, 12]: 3/7
Number of animals with organism after treatment/Number of animals treated, Giesma Stain (Pneumocystis carinii; oral 5 mg/kg/day (x21), 5 mg/kg/day): 10/10
Number of animals with organism after treatment/Number of animals treated, Giesma Stain (Pneumocystis carinii; oral 10 mg/kg/day (x21), 10 mg/kg/day): 5/10
Monkeys infected and treated/cured (P. cynomolgi; 0.316 mg/kg/day x7, orally): 0/2
Monkeys infected and treated/cured (P. cynomolgi; 1.0 mg/kg/day x7, orally): 1/2

COc1cc(NC(C)CCCN)c2ncccc2c1 (single isomer, unassigned; (-)) [(−) Primaquine, reference compound]
Number of animals with organism after treatment/Number of animals treated, Giesma Stain (Pneumocystis carinii; oral 5 mg/kg/day (x21), listed as (−) Enantiomer, 5 mg/kg/day): 10/10
Number of animals with organism after treatment/Number of animals treated, Giesma Stain (Pneumocystis carinii; oral 10 mg/kg/day (x21), listed as (−) Enantiomer, 10 mg/kg/day): 10/10
toxicity relative to d-primaquine [3]: 3 to 5 times
toxicity relative to racemic primaquine [3]: at least twice as toxic

COc1cc(NC(C)CCCN)c2nccc(C)c2c1Oc1ccc(Cl)c(Cl)c1 (single isomer, unassigned; (+)) [X, (+) 8-[(4-amino-1-methylbutyl)amino]-5-(3,4-dichlorophenoxy)-6-methoxy-4-methylquinoline succinate]
Parasitemia Day 6 [1, 13]: 28.2
Mice Alive Day 26 [1, 13]: 0/5
ΔMST (increase in mean survival time over the control) [1, 13]: 0 days
ΔMST (increase in mean survival time over the control) ([1]; 1 mg/kg/day, 3 mg/kg total): 6 days
Parasitemia Day 6 [1, 14]: 27.4
Mice Alive Day 26 [1, 14]: 0/5
ΔMST (increase in mean survival time over the control) ([1]; 4 mg/kg/day, 12 mg/kg total): 11 days
Parasitemia Day 6 [1, 15]: 1.1
Mice Alive Day 26 [1, 15]: 0/5
Mice surviving day 60/Mice infected and treated ([4]; day of treatment 2 (Table 5), listed as X Enantiomer, succinate, 2 mg/kg): 0/5
Mice surviving day 60/Mice infected and treated ([4]; day of treatment -2 (Table 5), listed as X Enantiomer, succinate, 2 mg/kg): 0/5
Mice surviving day 60/Mice infected and treated ([4]; day of treatment -3 (Table 5)): 0/5
Mice surviving day 60/Mice infected and treated ([4]; day of treatment -4 (Table 5)): 0/5
Mice surviving day 60/Mice infected and treated ([4]; day of treatment -5 (Table 5)): 0/5
Giemsa Stain Score (Pneumocystis carinii; [16]): 0.55 ± 0.16
Silver stain Score (Pneumocystis carinii; [16]): 1.15 ± 0.16
Giemsa Stain I/T (animals with organism after treatment/animals treated) (Pneumocystis carinii; [16]): 6/10
Silver stain I/T (animals with organism after treatment/animals treated) (Pneumocystis carinii; [16]): 10/10
Giemsa Stain I/T (animals with organism after treatment/animals treated) (Pneumocystis carinii; oral 0.5 mg/kg/day (x21)): 2/10
Silver stain I/T (animals with organism after treatment/animals treated) (Pneumocystis carinii; oral 0.5 mg/kg/day (x21)): 2/10
Giemsa Stain Score (Pneumocystis carinii; oral 0.5 mg/kg/day (x21)): 0.20 ± 0.10
Silver stain Score (Pneumocystis carinii; oral 0.5 mg/kg/day (x21)): 0.1 ± 0.1
Giemsa Stain I/T (animals with organism after treatment/animals treated) (Pneumocystis carinii; oral 1 mg/kg/day (x21)): 0/10
Silver stain I/T (animals with organism after treatment/animals treated) (Pneumocystis carinii; oral 1 mg/kg/day (x21)): 0/10
Giemsa Stain Score (Pneumocystis carinii; oral 1 mg/kg/day (x21)): 0.0
Silver stain Score (Pneumocystis carinii; oral 1 mg/kg/day (x21)): 0.0
Giemsa Stain I/T (animals with organism after treatment/animals treated) (Pneumocystis carinii; oral 5 mg/kg/day (x21)): 0/10
Silver stain I/T (animals with organism after treatment/animals treated) (Pneumocystis carinii; oral 5 mg/kg/day (x21)): 0/10
Giemsa Stain Score (Pneumocystis carinii; oral 5 mg/kg/day (x21)): 0.0
Silver stain Score (Pneumocystis carinii; oral 5 mg/kg/day (x21)): 0.0
IC50 ([5]; Trypanosoma, 48 h): 8.3 µM
IC50 [6]: 36 µM
IC50 [7]: 34 µM
IC50 ([8]; Trypanosoma, 48 h): 37 µM

COc1cc(C)c2c(Oc3cccc(C(F)(F)F)c3)c(OC)cc(NC(C)CCCN)c2n1 (stereo not drawn) [WR-238,605, reference compound]
Mice surviving 60 days/Mice infected and treated [1, 9]: 0/7
Mice surviving 60 days/Mice infected and treated [1, 10]: 1/7
Mice surviving 60 days/Mice infected and treated [1, 11]: 7/7
Mice surviving 60 days/Mice infected and treated [1, 12]: 1/7

COc1cc(NC(C)CCCN)c2nccc(C)c2c1Oc1ccc(Cl)c(Cl)c1 (single isomer, unassigned; (-)) [Y, (−)-8-[(4-amino-1-methylbutyl)amino]-5-(3,4-dichlorophenoxy)-6-methoxy-4-methylquinoline succinate]
Parasitemia Day 6 [1, 13]: 0.2
Mice Alive Day 26 [1, 13]: 0/0
ΔMST (increase in mean survival time over the control) [1, 13]: 11.6 days
Parasitemia Day 6 [1, 14]: 0.0
Mice Alive Day 26 [1, 14]: 4/5
ΔMST (increase in mean survival time over the control) [1, 14]: 13.6 days
Parasitemia Day 6 [1, 15]: 0.0
Mice Alive Day 26 [1, 15]: 5/5
Mice surviving day 60/Mice infected and treated ([4]; day of treatment 2 (Table 5), listed as Y Enantiomer, succinate, 2 mg/kg): 5/5
Mice surviving day 60/Mice infected and treated ([4]; day of treatment -2 (Table 5), listed as Y Enantiomer, succinate, 2 mg/kg): 1/5
Mice surviving day 60/Mice infected and treated ([4]; day of treatment -3 (Table 5)): 0/5
Mice surviving day 60/Mice infected and treated ([4]; day of treatment -4 (Table 5)): 0/5
Mice surviving day 60/Mice infected and treated ([4]; day of treatment -5 (Table 5)): 0/5
activity in the mouse model of PCP, enantiomer comparison (Pneumocystis carinii; (−) versus (+) enantiomer of DN3-27-1): significantly greater activity than the (+) enantiomer
Giemsa Stain Score (Pneumocystis carinii; [16]): 0.0
Silver stain Score (Pneumocystis carinii; [16]): 0.0
Giemsa Stain I/T (animals with organism after treatment/animals treated) (Pneumocystis carinii; [16]): 0/10
Silver stain I/T (animals with organism after treatment/animals treated) (Pneumocystis carinii; [16]): 0/10
Giemsa Stain I/T (animals with organism after treatment/animals treated) (Pneumocystis carinii; oral 1 mg/kg/day (x21)): 0/10
Silver stain I/T (animals with organism after treatment/animals treated) (Pneumocystis carinii; oral 1 mg/kg/day (x21)): 0/10
Giemsa Stain Score (Pneumocystis carinii; oral 1 mg/kg/day (x21)): 0.0
Silver stain Score (Pneumocystis carinii; oral 1 mg/kg/day (x21)): 0.0
Giemsa Stain I/T (animals with organism after treatment/animals treated) (Pneumocystis carinii; oral 5 mg/kg/day (x21)): 0/10
Silver stain I/T (animals with organism after treatment/animals treated) (Pneumocystis carinii; oral 5 mg/kg/day (x21)): 0/10
Giemsa Stain Score (Pneumocystis carinii; oral 5 mg/kg/day (x21)): 0.0
Silver stain Score (Pneumocystis carinii; oral 5 mg/kg/day (x21)): 0.0
IC50 ([5]; succinate): 13.5 µM
IC50 [6]: 17.5 µM
IC50 [7]: 11 µM
IC50 ([8]; succinate): 27 µM
